The assay deals with P388 leukemia ip, CD2F1 mice, survival T/C. In words: NCI In Vivo Anticancer Drug Screen. Data for tumor model P388 Leukemia (intraperitoneal) in CD2F1 (CDF1) mice. The conditions noted are these: endpoint: median survival time, higher = longer survival. A digest of the protocol:
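Mice carrying the transplanted tumor received test compound or vehicle. Survival was recorded in each group, and the value is the treated-group measurement divided by that of the vehicle-treated control group.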

Setting [1] is: dose: 50.0 mg/kg/injection, schedule: Q01DX009 (ip), vehicle: Klucel (hydroxypropylcellulose) (HPC).
Where [2] appears, read: dose: 100.0 mg/kg/injection, schedule: Q01DX009 (ip), vehicle: Klucel (hydroxypropylcellulose) (HPC).
Where [3] appears, read: dose: 200.0 mg/kg/injection, schedule: Q01DX009 (ip), vehicle: Klucel (hydroxypropylcellulose) (HPC).
The mark [4] stands for this setting: dose: 100.0 mg/kg/injection, schedule: Q01DX009 (ip), vehicle: saline with Tween-80.
Where [5] appears, read: dose: 25.0 mg/kg/injection, schedule: Q01DX009 (ip), vehicle: saline with Tween-80.
Where [6] appears, read: dose: 50.0 mg/kg/injection, schedule: Q01DX005 (ip), vehicle: distilled water + Tween-80.
[7] abbreviates: dose: 100.0 mg/kg/injection, schedule: Q01DX005 (ip), vehicle: distilled water + Tween-80.
[8] abbreviates: dose: 200.0 mg/kg/injection, schedule: Q01DX005 (ip), vehicle: distilled water + Tween-80.

Values joined by “and” are separate entries in the source; they are usually repeats but may differ in a detail not shown here. Equal values may be shown once. Toxic doses and inconclusive results are not listed.

Regarding `CN1C(=O)C(n2[nH]c(=O)n(-c3ccccc3)c2=O)C(=O)N(C)C1=O`, the T/C was 99 % of control under setting [1], 89 % of control under setting [2] and 103 % of control under setting [3].
On to `CCO/C=C/C=C1C(=O)N(C)C(=O)N(C)C1=O`, for which the T/C (dose: 25.0 mg/kg/injection, schedule: Q01DX009 (ip), vehicle: saline + Tween-80 + alcohol) is 100 % of control and 108 % of control; the T/C (dose: 50.0 mg/kg/injection, schedule: Q01DX009 (ip), vehicle: saline + Tween-80 + alcohol) is 111 % of control and 118 % of control; the T/C (dose: 100.0 mg/kg/injection, schedule: Q01DX009 (ip), vehicle: saline + Tween-80 + alcohol) is 108 % of control and 117 % of control; the T/C (dose: 200.0 mg/kg/injection, schedule: Q01DX009 (ip), vehicle: saline + Tween-80 + alcohol) is 115 % of control and 119 % of control; the T/C (dose: 400.0 mg/kg/injection, schedule: Q01DX009 (ip), vehicle: saline + Tween-80 + alcohol) is 103 % of control.
Turning to `COC1C(OC(N)=O)C(O)C(Oc2ccc3c(O)c(NC(=O)c4ccc(O)c(CC=C(C)C)c4)c(=O)oc3c2C)OC1(C)C` (stereo not drawn), the T/C (dose: 25.0 mg/kg/injection, schedule: Q01DX009 (ip), vehicle: Klucel (hydroxypropylcellulose) (HPC)) was 100 % of control; the T/C (dose: 50.0 mg/kg/injection, schedule: Q01DX005 (ip), vehicle: Klucel (hydroxypropylcellulose) (HPC)) is 109 % of control; the T/C under setting [1] was 95 % of control; the T/C (dose: 100.0 mg/kg/injection, schedule: Q01DX005 (ip), vehicle: Klucel (hydroxypropylcellulose) (HPC)) was 106 % of control; the T/C under setting [2] was 100 % of control; the T/C (dose: 200.0 mg/kg/injection, schedule: Q01DX005 (ip), vehicle: Klucel (hydroxypropylcellulose) (HPC)) is 109 % of control. Further, under setting [3], the T/C was 103 % of control.
For the compound `CC(=O)OC1CC2C(C)(C)C(=O)C=CC2(C)C2CCC3(C)C(c4ccoc4)OC(=O)C4OC43C12C` (stereo not drawn), the T/C under setting [4] was 90 % of control; the T/C (dose: 100.0 mg/kg/injection, schedule: Q04DX003 (ip), vehicle: saline with Tween-80) was 109 % of control; the T/C (dose: 200.0 mg/kg/injection, schedule: Q01DX009 (ip), vehicle: saline with Tween-80) is 95 % of control; the T/C (dose: 200.0 mg/kg/injection, schedule: Q04DX003 (ip), vehicle: saline with Tween-80) was 100 % of control; the T/C (dose: 400.0 mg/kg/injection, schedule: Q01DX009 (ip), vehicle: saline with Tween-80) was 100 % of control; the T/C (dose: 400.0 mg/kg/injection, schedule: Q04DX003 (ip), vehicle: saline with Tween-80) is 90 % of control.
With `COc1cc([C@@H]2c3cc4c(cc3[C@H](OC(=O)c3ccccc3C(=O)O)[C@H]3COC(=O)[C@H]23)OCO4)cc(OC)c1OC`, the T/C reads like this: (dose: 12.5 mg/kg/injection, schedule: Q01DX005 (ip), vehicle: Klucel (hydroxypropylcellulose) (HPC)) 119 % of control; (dose: 25.0 mg/kg/injection, schedule: Q01DX005 (ip), vehicle: Klucel (hydroxypropylcellulose) (HPC)) 119 % of control.
Consider `COC(=O)c1[nH]c(=O)[nH]c(=O)c1F`, for which the T/C was 118 % of control (dose: 8.0 mg/kg/injection, schedule: Q01DX009 (ip), vehicle: saline with Tween-80); 104 % of control (dose: 16.0 mg/kg/injection, schedule: Q01DX009 (ip), vehicle: saline with Tween-80); 110 % of control (dose: 22.0 mg/kg/injection, schedule: Q04DX003 (ip), vehicle: saline with Tween-80); 100 % of control under setting [5]; 100 % of control (dose: 50.0 mg/kg/injection, schedule: Q01DX009 (ip), vehicle: saline with Tween-80); 155 % of control (dose: 50.0 mg/kg/injection, schedule: Q04DX003 (ip), vehicle: saline with Tween-80). Further, the T/C under setting [4] was 90 % of control.
In the case of `N#CCc1ccc(Cl)c(Cl)c1`, the T/C reads like this: (dose: 6.25 mg/kg/injection, schedule: Q01DX009 (ip), vehicle: saline with Tween-80) 104 % of control; (dose: 12.5 mg/kg/injection, schedule: Q01DX009 (ip), vehicle: saline with Tween-80) 100 % of control; (dose: 12.5 mg/kg/injection, schedule: Q04DX003 (ip), vehicle: saline with Tween-80) 100 % of control; under setting [5], 100 % of control; (dose: 25.0 mg/kg/injection, schedule: Q04DX003 (ip), vehicle: saline with Tween-80) 100 % of control.
`CCCCNC=C1C(=O)Nc2ccccc2NC1=O`: the T/C (dose: 60.0 mg/kg/injection, schedule: Q01DX005 (ip), vehicle: Klucel (hydroxypropylcellulose) (HPC)) is 98 % of control; the T/C (dose: 120.0 mg/kg/injection, schedule: Q01DX005 (ip), vehicle: Klucel (hydroxypropylcellulose) (HPC)) is 92 % of control; the T/C (dose: 240.0 mg/kg/injection, schedule: Q01DX005 (ip), vehicle: Klucel (hydroxypropylcellulose) (HPC)) is 91 % of control.
On to `COc1cc2c(cc1C(C)c1ccc(O)cc1)OCO2` (stereo not drawn), for which the T/C under setting [6] is 100 % of control, the T/C under setting [7] was 97 % of control and the T/C under setting [8] is 96 % of control.
Regarding `O=C(NC(=O)c1cccc2ccccc12)NC(=S)c1ccc(Br)cc1`, the T/C (dose: 12.5 mg/kg/injection, schedule: Q01DX001 (ip), vehicle: saline) is 101 % of control; the T/C (dose: 25.0 mg/kg/injection, schedule: Q01DX001 (ip), vehicle: saline) is 101 % of control; the T/C (dose: 50.0 mg/kg/injection, schedule: Q01DX001 (ip), vehicle: saline) is 101 % of control.
With `COc1cc(C2c3cc4c(cc3C(OC3CCCCO3)C3COC(=O)C23)OCO4)cc(OC)c1OC` (stereo not drawn), the T/C (dose: 3.12 mg/kg/injection, schedule: Q01DX005 (ip), vehicle: Klucel (hydroxypropylcellulose) (HPC)) is 117 % of control.
As for `CNC(=O)OCc1nc(-c2ccccc2)n(C)c1COC(=O)NC`, the T/C is, setting by setting: (dose: 12.5 mg/kg/injection, schedule: Q01DX005 (ip), vehicle: distilled water + Tween-80) 98 % of control; (dose: 25.0 mg/kg/injection, schedule: Q01DX005 (ip), vehicle: distilled water + Tween-80) 107 % of control; under setting [6], 112 % of control; under setting [7], 116 % of control; under setting [8], 119 % of control.
Turning to `CC1=CC(=N/Cl)/C=CC/1=N/Cl`, the T/C reads like this: (dose: 50.0 mg/kg/injection, schedule: Q01DX005 (ip), vehicle: saline) 109 % of control; (dose: 100.0 mg/kg/injection, schedule: Q01DX005 (ip), vehicle: saline) 111 % of control; (dose: 200.0 mg/kg/injection, schedule: Q01DX005 (ip), vehicle: saline) 114 % of control.
Turning to `C[CH2][Sn]([CH2]C)([S]CCS(=O)(=O)O)[S]CCS(=O)(=O)O` (tested in a mixture with another compound), the T/C (dose: 7.5 mg/kg/injection, schedule: Q01DX005 (ip), vehicle: saline) is 123 % of control.
Consider `O=C1C=C(c2ccccc2)S(=O)(=O)c2cc(O)ccc21`, for which the T/C is 119 % of control (dose: 50.0 mg/kg/injection, schedule: Q01DX005 (ip), vehicle: saline with Tween-80); 114 % of control (dose: 100.0 mg/kg/injection, schedule: Q01DX005 (ip), vehicle: saline with Tween-80); 110 % of control (dose: 200.0 mg/kg/injection, schedule: Q01DX005 (ip), vehicle: saline with Tween-80).
In the case of `CCCCC[CH2][GeH]([CH2]CCCCC)[O][GeH]([CH2]CCCCC)[CH2]CCCCC`, the T/C runs as follows: (dose: 12.5 mg/kg/injection, schedule: Q01DX009 (ip), vehicle: saline) 100 % of control and 97 % of control; (dose: 25.0 mg/kg/injection, schedule: Q01DX009 (ip), vehicle: saline) 104 % of control and 90 % of control; (dose: 50.0 mg/kg/injection, schedule: Q01DX009 (ip), vehicle: saline) 100 % of control and 101 % of control and 106 % of control; (dose: 100.0 mg/kg/injection, schedule: Q01DX009 (ip), vehicle: saline) 120 % of control and 97 % of control.
With `C=C(C)C1CCc2c(C)cc(OC(C)=O)c(C(=O)OC(C)=O)c2C1` (stereo not drawn), the T/C is 107 % of control (dose: 5.0 mg/kg/injection, schedule: Q01DX005 (ip), vehicle: saline); 105 % of control (dose: 10.0 mg/kg/injection, schedule: Q01DX005 (ip), vehicle: saline); 105 % of control (dose: 20.0 mg/kg/injection, schedule: Q01DX005 (ip), vehicle: saline).
In the case of `c1ccc2c(c1)ccc1c2c[n+](CCCCCCCC[n+]2cc3c4ccccc4ccc3c3ccccc32)c2ccccc12`, the T/C reads like this: (dose: 0.78 mg/kg/injection, schedule: Q01DX009 (ip), vehicle: distilled water + Tween-80) 172 % of control; (dose: 1.56 mg/kg/injection, schedule: Q01DX009 (ip), vehicle: distilled water + Tween-80) 163 % of control; (dose: 3.13 mg/kg/injection, schedule: Q01DX009 (ip), vehicle: distilled water + Tween-80) 204 % of control; (dose: 6.25 mg/kg/injection, schedule: Q01DX009 (ip), vehicle: distilled water + Tween-80) 209 % of control.

The record behind these values is PubChem BioAssay AID330 (DTP/NCI, 2004).
